The values below come from patent publication US12649980B2, “Three-dimensional surface for protein and small molecule microarrays” (The Johns Hopkins University, priority 2019, dated 2026).

The target in assay [1] is T1, GLUT1 (Homo sapiens, UniProt P11166).
T1 construct: The full-length human SLC2A1, SLC2A3, and SLC2A4 genes were PCR amplified and inserted into pLenti6M vector 2; expressed in transfected cells
T1 sequence (P11166 1-492): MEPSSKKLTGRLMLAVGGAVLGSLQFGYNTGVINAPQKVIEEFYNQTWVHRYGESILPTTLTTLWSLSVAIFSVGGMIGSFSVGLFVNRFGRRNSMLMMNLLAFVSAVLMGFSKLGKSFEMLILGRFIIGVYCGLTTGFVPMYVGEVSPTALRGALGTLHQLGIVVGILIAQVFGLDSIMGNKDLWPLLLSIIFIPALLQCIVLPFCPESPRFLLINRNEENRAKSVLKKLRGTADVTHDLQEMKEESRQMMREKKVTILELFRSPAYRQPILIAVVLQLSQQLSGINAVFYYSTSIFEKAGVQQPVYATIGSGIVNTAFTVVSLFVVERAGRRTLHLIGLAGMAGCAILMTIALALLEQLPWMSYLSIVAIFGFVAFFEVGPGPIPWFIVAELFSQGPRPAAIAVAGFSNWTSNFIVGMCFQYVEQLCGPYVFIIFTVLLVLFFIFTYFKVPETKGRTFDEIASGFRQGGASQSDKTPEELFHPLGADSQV
Kind of assay: rapafucin 3D microarray screen with GLUT1-containing cell lysate. In kind it is binding. Conditions: signal-to-background ratio, 3D surface, lysate of GLUT1-overexpressing HEK293T; hit if SBR > 3. From the text: (§1) Once stock solutions of the rapafucin library were arrayed on the 2D or 3D surface and most of solvent carrier was evaporated, the crosslinking reaction was initiated by irradiating the surfaces with 365-nm wavelength UV light. Kawatani and Osada, Medchemcomm 2014, 5, 277-287. […] To screen for GLUT1-interacting rapafucins, GLUT1 was stably overexpressed in HEK293T cells and generated cell lysates containing detergent-solubilized recombinant GLUT1 (FIG. 10). The GLUT1-containing cell lysate was then incubated on both 2D and 3D rapafucin microarrays. After washing the slides to remove unbound proteins, the bound GLUT1 protein was detected with anti-GLUT1 antibodies, followed by visualization with Cy5-labeled secondary antibodies using a microarray scanner. Rapafucins were scored as positive hits when the corresponding SBR was greater than 3. Based on this criterion, a total of 17 rapafucin hits and one positive control BAY-876, a specific GLUT1 inhibitor, Siebeneicher et al., ChemMedChem 2016, 11, 2261-2271, were identified on the 3D rapafucin microarray. In contrast, only one hit (WL13-F11, also among the 17 hits identified from the 3D rapafucin microarray) was identified on the 2D rapafucin microarray (Table 1, FIG. 11).
The amine substrates (Arrayit, SMM) were immerged in a mixture of 2-bromoisobutyryl bromide (BIBB, 0.1 mM, as initiator) and propionyl bromide (10 mM, as horizontal spacer) with triethylamine (15 mM) in DCM for 4 hours. A degassed polymerization reaction mixture, containing copper (II) chloride dihydrate (CuCl2, 4 mmol), 2,2′-bipyridine (2 mmol), 75 mmol monomers mixture of 2-(dimethylamino)ethyl methacrylate (DMAEMA) and poly(ethylene glycol) methacrylate (PEGMA Mn 360) in 500 mL Milli-Q/MeOH, was mixed with freshly made ascorbic acid (4 mmol). The mixture was applied to 50 slides for 6 hours under the argon atmosphere for the surface-initiated polymerization. A gradient ratio of PEGMA and DMAEMA was set, including 10:0, 8:2, 5:5, 2:8 and 0:10 for an optimization purpose. The terminals of the brushes were further functionalized by N,N′-disuccinimidyl carbonate (DSC, 10 mM) and 4-dimethylaminopyridine (DMAP,10 mM) in DMF overnight to form succinimidyl carbonate intermediate, and, successively, diazirine linker 1 (10 mM) and N,Ndiisopropylethylamine (DIPEA, 50 mM) in DMF for 2 hours to couple the photoaffinity linker in dark at room temperature. At the end, the substrates were immerged in a 50 mM ethanolamine in DMF to block the residual carboxylic moiety. The slides were thoroughly washed by DMF, EtOH and DCM and dried in a fuming cupboard and ready for spotting.
10 mM of rapafucins in DMSO from the library were spotted onto the slides with a high-precision microarrayer (Nanoprint, Arrayit, CA) for a desired pattern in dark, which was loaded with 16 100-μm diameter micro-spotting pins. The pin heads were thoroughly washed and sonicated in ethanol and dried for 4 times under a compassed air between each sample loading. After overnight evaporation, the slides were exposed to 365-nm wavelength UV irradiation for 4 J/cm^2 by CL-1000L UV crosslinker (UVP, CA) for rapafucins covalent immobilization. The slides were ultrasonic cleaned successively in DCM, MeOH and Milli-Q water and stored in a −20° C. freezer.
(§2) In the optimization experiments, the slides were incubated with 50 nM purified recombinant FKBP12 for 1 hour, while in the GLUT1 screening, 10 mg/mL of cell lysate containing DDM-solubilized GLUT1 from GLUT1 overexpressed HEK293T was incubated for 1 hour. Successively, primary antibody and CY5 labeled secondary antibody were added for 1 hour. The chips were washed in buffer A for 5 mins 3 times after the sample and antibodies incubation. After centrifugation, the dried chips were scanned by a microarray scanner (Genepix, US) at 635-nm wavelength. The final result was analyzed by GenePix software.

Assay [2] addresses T1, GLUT1. Kind of assay: rapafucin 2D microarray screen with GLUT1-containing cell lysate. In kind it is binding. The conditions noted are these: signal-to-background ratio, 2D surface, same lysate and conditions.
Source text: as §1, §2

The subject of another assay is A549 cells. Put plainly: [3H]-2DG uptake assay in A549 cells. Format: cell-based, human. The conditions noted are these: 10 min incubation with compound, mean ± s.d., n = 3. How it is done: To determine which of the 17 rapafucin hits inhibited the transporter activity of GLUT1, an orthogonal glucose uptake assay using 2-deoxy-D-[3H] glucose ([3H]-2DG), a nonhydrolyzable, radioactive glucose analog, was employed. Each hit was separately incubated with A549 cells for 10 min before the amount of [3H]-2DG taken up by the cells was measured using scintillation counting. […] The effect of JW11-D2 on uptake of [3H]-2DG in human red blood cells that exclusively express GLUT1 was then determined. Helgerson and Carruthers, J. Biol. Chem. 1987, 262, 5464-5475. […] To further improve the potency of JW11-D2, a structure-activity relationship (SAR) study was performed by synthesizing 21 new analogs of JW11-D2 using different amino acid building blocks.
The inhibitory activity of compounds on glucose transport was analyzed by measuring the cell uptake of [3H]-2DG as previously described. Ulanovskaya et al., Chem. Biol. 2011, 18, 222-230. Briefly, cells were washed twice and incubated in low-glucose medium for 10 min. Cells were added drugs and incubated for another 10 min before adding [3H]-2DG. After 10 min incubation with [3H]-2DG, cells were washed twice and lysed with 0.2 N NaOH plus 0.2% SDS. The cell lysate was transferred to a new tube containing 1 mL of optiphase supermix. Glucose uptake was quantified with a scintillation counter.

The term IC50 denotes the concentration needed to halve the response being measured. Take `CCCC[C@H]1C(=O)N[C@@H](Cc2ccccc2)C(=O)N(C)CCC=CC(=O)OCC(C)(C)C(=O)C(=O)N2CCCC[C@H]2C(=O)O[C@H](CCc2ccc(OC)c(OC)c2)c2cccc(c2)NC(=O)CCC(=O)N(C)[C@H](Cc2ccccc2)C(=O)N[C@@H](Cc2ccc(F)cc2)C(=O)N1C` [HP05-A9]: at GLUT1 [1], the “3D SBR” value was found to be 3.4 ± 1.4. Besides, the “2D SBR” value on GLUT1 [2] is recorded as below 3.0. Besides, the half-inhibitory concentration (IC50) with A549 cells is above 3 µM. On the same counts, the results for `CCC(C)C1C(=O)NC(Cc2ccccc2)C(=O)N(C)CCC=CC(=O)OCC(C)(C)C(=O)C(=O)N2CCCCC2C(=O)OC(CCc2ccc(OC)c(OC)c2)c2cccc(c2)OCC(=O)N(C)CC(=O)NC(Cc2ccc(F)cc2)C(=O)N1C` (centres unmarked) [HP05-F5] are 7.9 ± 2.6, below 3.0 and above 3 µM. In the case of `CCC(C)C1C(=O)N(C)CC(=O)N(C)CCC=CC(=O)OCC(C)(C)C(=O)C(=O)N2CCCCC2C(=O)OC(CCc2ccc(OC)c(OC)c2)c2cccc(c2)NC(=O)CCC(=O)N(C)C(CC(C)C)C(=O)NC(Cc2ccccc2)C(=O)N1C` (centres unmarked) [JW11-D2-1], the concentration for half-maximal inhibition (IC50) with A549 cells is above 3 µM. With `CCC(C)C1C(=O)N2CCCC2C(=O)N(C)CCC=CC(=O)OCC(C)(C)C(=O)C(=O)N2CCCCC2C(=O)OC(CCc2ccc(OC)c(OC)c2)c2cccc(c2)NC(=O)CCC(=O)N(C)C(CC(C)C)C(=O)NC(Cc2ccccc2)C(=O)N1C` (centres unmarked) [JW11-D2-2], in the assay with A549 cells, the IC50 was above 3 µM.

For the molecule `CCC(C)C1C(=O)N2CCCC2C(=O)N(C)CCC=CC(=O)OCC(C)(C)C(=O)C(=O)N2CCCCC2C(=O)OC(CCc2ccc(OC)c(OC)c2)c2cccc(c2)NC(=O)CCC(=O)N(C)C(CC(C)C)C(=O)NC(Cc2ccccc2)C(=O)N1C` (centres unmarked) [JW11-D2-3], the half-inhibitory concentration (IC50) in the assay on A549 cells was above 3 µM. The same measure, in the same setting: with `COc1ccc(CCC2OC(=O)C3CCCCN3C(=O)C(=O)C(C)(C)COC(=O)C=CCCN(C)C(=O)CNC(=O)C(C(C)C)N(C)C(=O)C(Cc3ccccc3)NC(=O)C(CC(C)C)N(C)C(=O)CCC(=O)Nc3cccc2c3)cc1OC` (centres unmarked) [JW11-D2-4] the figure was 0.0302 ± 0.0023 µM; with `CCCCC1C(=O)NCC(=O)N(C)CCC=CC(=O)OCC(C)(C)C(=O)C(=O)N2CCCCC2C(=O)OC(CCc2ccc(OC)c(OC)c2)c2cccc(c2)NC(=O)CCC(=O)N(C)C(CC(C)C)C(=O)NC(Cc2ccccc2)C(=O)N1C` (centres unmarked) [JW11-D2-7], above 3 µM. As for `CCCC1C(=O)NCC(=O)N(C)CCC=CC(=O)OCC(C)(C)C(=O)C(=O)N2CCCCC2C(=O)OC(CCc2ccc(OC)c(OC)c2)c2cccc(c2)NC(=O)CCC(=O)N(C)C(CC(C)C)C(=O)NC(Cc2ccccc2)C(=O)N1C` (centres unmarked) [JW11-D2-8], in the assay on A549 cells, the IC50 is above 3 µM. Turning to `COc1ccc(CCC2OC(=O)C3CCCCN3C(=O)C(=O)C(C)(C)COC(=O)C=CCCN(C)C(=O)CNC(=O)C(CC(C)C)N(C)C(=O)C(Cc3ccccc3)NC(=O)C(CC(C)C)N(C)C(=O)CCC(=O)Nc3cccc2c3)cc1OC` (centres unmarked) [JW11-D2-9], in the assay on A549 cells, the 50% inhibitory concentration (IC50) was above 3 µM.

As for `CCC(C)C1C(=O)NCC(=O)N(C)CCC=CC(=O)OCC(C)(C)C(=O)C(=O)N2CCCCC2C(=O)OC(CCc2ccc(OC)c(OC)c2)c2cccc(c2)NC(=O)CCC(=O)N(C)C(CC(C)C)C(=O)NC(CCc2ccccc2)C(=O)N1C` (centres unmarked) [JW11-D2-10], in the assay with A549 cells, the half-inhibitory concentration (IC50) is above 3 µM. For `CCC(C)C1C(=O)NCC(=O)N(C)CCC=CC(=O)OCC(C)(C)C(=O)C(=O)N2CCCCC2C(=O)OC(CCc2ccc(OC)c(OC)c2)c2cccc(c2)NC(=O)CCC(=O)N(C)C(CC(C)C)C(=O)NC(Cc2ccc(O)cc2)C(=O)N1C` (centres unmarked) [JW11-D2-13], the IC50 in the assay on A549 cells was above 3 µM. Turning to `CCC(C)C1C(=O)NCC(=O)N(C)CCC=CC(=O)OCC(C)(C)C(=O)C(=O)N2CCCCC2C(=O)OC(CCc2ccc(OC)c(OC)c2)c2cccc(c2)NC(=O)CCC(=O)N(C)C(CC(C)C)C(=O)N(C)C(Cc2ccccc2)C(=O)N1C` (centres unmarked) [JW11-D2-14], the half-maximal inhibitory concentration (IC50) with A549 cells amounted to 0.0385 ± 0.0047 µM. For `CCC(C)C1C(=O)NCC(=O)N(C)CCC=CC(=O)OCC(C)(C)C(=O)C(=O)N2CCCCC2C(=O)OC(CCc2ccc(OC)c(OC)c2)c2cccc(c2)NC(=O)CCC(=O)N(C)C(CC(C)C)C(=O)NC(CC(C)C)C(=O)N1C` (centres unmarked) [JW11-D2-15], the IC50 in the assay with A549 cells was above 3 µM. With `CCC(C)C1C(=O)NCC(=O)N(C)CCC=CC(=O)OCC(C)(C)C(=O)C(=O)N2CCCCC2C(=O)OC(CCc2ccc(OC)c(OC)c2)c2cccc(c2)NC(=O)CCC(=O)NC(CC(C)C)C(=O)NC(Cc2ccccc2)C(=O)N1C` (centres unmarked) [JW11-D2-16], in the assay with A549 cells, the IC50 was above 3 µM. On to `CCC(C)C1C(=O)NC(Cc2ccccc2)C(=O)N(C)C(C(C)CC)C(=O)NCC(=O)N(C)CCC=CC(=O)OCC(C)(C)C(=O)C(=O)N2CCCCC2C(=O)OC(CCc2ccc(OC)c(OC)c2)c2cccc(c2)NC(=O)CCC(=O)N1C` (centres unmarked) [JW11-D2-17], for which, in the assay on A549 cells, the 50% inhibitory concentration (IC50) was above 3 µM.

With `CCCC1C(=O)NC(Cc2ccccc2)C(=O)N(C)C(C(C)CC)C(=O)NCC(=O)N(C)CCC=CC(=O)OCC(C)(C)C(=O)C(=O)N2CCCCC2C(=O)OC(CCc2ccc(OC)c(OC)c2)c2cccc(c2)NC(=O)CCC(=O)N1C` (centres unmarked) [JW11-D2-18], in the assay with A549 cells, the IC50 was above 3 µM.

As for `CCCCC1C(=O)NC(Cc2ccccc2)C(=O)N(C)C(C(C)CC)C(=O)NCC(=O)N(C)CCC=CC(=O)OCC(C)(C)C(=O)C(=O)N2CCCCC2C(=O)OC(CCc2ccc(OC)c(OC)c2)c2cccc(c2)NC(=O)CCC(=O)N1C` (centres unmarked) [JW11-D2-19], the half-inhibitory concentration (IC50) in the assay on A549 cells was above 3 µM.

Regarding `CCC(C)C1C(=O)NCC(=O)N(C)CCC=CC(=O)OCC(C)(C)C(=O)C(=O)N2CCCCC2C(=O)OC(CCc2ccc(OC)c(OC)c2)c2cccc(c2)NC(=O)CCC(=O)N(C)C(C(C)C)C(=O)NC(Cc2ccccc2)C(=O)N1C` (centres unmarked) [JW11-D2-20], the IC50 in the assay on A549 cells was found to be 0.0623 ± 0.0051 µM. Take `CCC(C)C1C(=O)NCC(=O)N(C)CCC=CC(=O)OCC(C)(C)C(=O)C(=O)N2CCCCC2C(=O)OC(CCc2ccc(OC)c(OC)c2)c2cccc(c2)NC(=O)CCC(=O)N(C)C(Cc2ccccc2)C(=O)NC(Cc2ccccc2)C(=O)N1C` (centres unmarked) [JW11-D2-21]: the half-maximal inhibitory concentration (IC50) with A549 cells was above 3 µM.
